In patent US9090651B2, “Helix 12 directed pharmaceutical products” (ENDORECHERCHE, INC., priority 2004, dated 2015):

Assays:
[1] = target: T1, Human Androgen Receptor (Homo sapiens, UniProt P10275); experiment: Androgen receptor binding assay (hydroxylapatite, [3H]R1881, cytosol of transfected HEK-293 cells); details: % RBA=100×IC50 R1881/IC50 compound, transfected cells
T1 sequence (P10275 1-920): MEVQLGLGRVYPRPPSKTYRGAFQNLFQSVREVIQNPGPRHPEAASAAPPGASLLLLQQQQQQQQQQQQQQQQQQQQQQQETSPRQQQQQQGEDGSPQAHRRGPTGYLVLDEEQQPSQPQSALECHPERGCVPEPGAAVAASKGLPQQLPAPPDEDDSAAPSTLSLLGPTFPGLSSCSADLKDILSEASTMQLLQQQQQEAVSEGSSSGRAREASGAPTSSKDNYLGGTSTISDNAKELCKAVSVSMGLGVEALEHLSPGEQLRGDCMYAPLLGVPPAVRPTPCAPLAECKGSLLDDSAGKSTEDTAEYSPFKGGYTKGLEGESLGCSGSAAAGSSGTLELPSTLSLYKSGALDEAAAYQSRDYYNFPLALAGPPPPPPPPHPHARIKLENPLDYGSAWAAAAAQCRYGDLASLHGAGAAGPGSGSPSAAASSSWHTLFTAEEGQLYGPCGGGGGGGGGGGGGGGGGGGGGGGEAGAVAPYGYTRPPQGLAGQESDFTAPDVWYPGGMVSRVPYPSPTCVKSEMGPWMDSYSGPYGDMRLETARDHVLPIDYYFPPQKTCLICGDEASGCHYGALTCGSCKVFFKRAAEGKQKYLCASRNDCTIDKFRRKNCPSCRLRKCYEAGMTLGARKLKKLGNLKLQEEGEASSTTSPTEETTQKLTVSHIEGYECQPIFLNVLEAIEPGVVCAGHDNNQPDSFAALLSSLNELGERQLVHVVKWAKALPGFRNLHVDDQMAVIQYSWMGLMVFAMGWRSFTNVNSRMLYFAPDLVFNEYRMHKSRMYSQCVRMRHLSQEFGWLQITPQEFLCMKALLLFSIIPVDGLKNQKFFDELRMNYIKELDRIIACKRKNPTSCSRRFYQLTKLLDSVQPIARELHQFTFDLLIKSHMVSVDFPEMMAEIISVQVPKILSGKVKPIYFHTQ

[2] = tested on: rat prostate; experiment: Systemic antiandrogenic activity, orchidectomized immature male rats with DHT implant: prostate weight; format: in vivo
Protocol: (§1) Immature male rats (Crl:CD(SD)Br) 22 to 24-day old were obtained from Charles-River, Inc. (St-Constant, Quebec, Canada) and housed up to 5 per cage in plastic bins in a temperature (23±1° C.)- and light (12 h light/day, lights on at 7 h15)-controlled environment. The rats were fed rodent chow and tap water ad libitum. The day following their arrival, the animals were orchidectomized (CX) under Isoflurane anesthesia via scrotal route and randomly assigned to groups of 5 animals.
(§2) Compounds were solubilized (when possible) in dimethylsulfoxide (DMSO, 10% final concentration) and administered as suspension in 0.4% methylcellulose. […] One group of animals received the antiandrogen Flutamide as reference. The animals were killed by cervical dislocation under isoflurane anesthesia on the 8th morning following castration. The ventral prostate and seminal vesicles were rapidly dissected and weighed.
(§3) W is the weight of the prostate or the seminal vesicle.

[3] = tested on: rat seminal vesicle; experiment: Systemic antiandrogenic activity, orchidectomized immature male rats with DHT implant: seminal vesicle weight; format: in vivo
Protocol: as §1, §2, §3

[4] = tested on: ventral prostate, seminal vesicle and levator ani; experiment: In vivo assessment of SARM effect on immature rats; parameters: species or system rat
Protocol: as §1
as §2, with “To evaluate the antiandrogenic activity, tested compounds were administered subcutaneously once daily at a dose of 0.5 mg/animal for antiandrogenitic activity or 0.2 mg/animal for androgenic activity for 7 days (SD 1 to 7). Compounds” for “Compounds”

[5] = 0.5 mg/day s.c., DHT 1-cm length implant
[6] = 0.2 mg/day s.c., absence of exogenous androgens, immature rats

CC(NC1CCCC1)c1cccc(OCC[C@]23CCC4C5CCC(=O)C=C5C[C@H](C)C4C2CC[C@@]3(C)O)c1 (stereo in doubt) [EM-7216]
Androgen Receptor Binding (%) Human RBA R1881 = 100 [1]: 77%
inhibition of the stimulated weight of ventral prostate [2, 5]: 28%
inhibition in vivo at 0.5 mg ([2]; Rattus norvegicus, sc, 168 h, read-out: IN VIVO Rat s.c. (+DHT) Prostate % inhibition, s.c., 0.5 mg/animal once daily for 7 days, +DHT): 28%
inhibition of the stimulated weight of seminal vesicle [3, 5]: no inhibiting effect
inhibition in vivo at 0.5 mg ([3]; Rattus norvegicus, sc, 168 h, read-out: IN VIVO Rat s.c. (+DHT) SV % inhibition, s.c., 0.5 mg/animal once daily for 7 days, +DHT): 0%
stimulation of the weight of levator ani [4, 6]: 238
stimulation of the weight of seminal vesicle [4, 6]: 200%
stimulation of the weight of ventral prostate [4, 6]: 370%
inhibition of the stimulated weight of levator ani [4, 5]: no inhibiting effect
